Source: US11207315B2, “Emetine compounds for treatment and prevention of flavivirus infection” (FLORIDA STATE UNIVERSITY RESEARCH FOUNDATION, INC., priority 2017, dated 2021)
Structures can show the parent of a compound that is named as a salt.

Columns and labels:
ZIKV [1] = experiment: liver viral load (NS1 gene expression by real time PCR) in ZIKV-challenged mice; type: in vivo, Ifnar1−/− mice; conditions: until day 3
Protocol: FIG. 10. Zika virus load estimation in mouse liver following emetine treatment before and after Zika virus challenge. From 30 mg of liver tissue stored in RNAlater (Qiagen), total RNA was isolated using RNeasy mini kit (Qiagen) and converted to cDNA. Viral NS1 gene expression was estimated by real time PC Relative expression of the NS1 gene was calculated using ZIKV-NS1 specific primers and GAPDH primers. Statistical analysis was done using the Mann-Whitney ANOVA. *p<0.05, **p<0.01, ***p<0.001.
(§1) Ifnar1−/− mice (8 wk old, male and female) were dosed with Emetine 2 mg/kg/day i.p. starting at 24 hours prior (n=8) or 24 after (n=7) the challenging with ZIKV on day 0. Drug was continued till day 3. Mice were euthanized, and blood and liver tissue were collected.

ZIKV [2] = experiment: serum viral load (ZIKV NS1 ELISA) in ZIKV-challenged mice; type: in vivo, Ifnar1−/− mice; conditions: for reduction in serum viral load: until day 3; for decrease in serum viral load: serum at day 3
Protocol: (§2) FIG. 8. Zika virus load estimation in mouse serum following emetine treatment. Serum was separated. NS1 protein was estimated using ZIKV-NS1 ELISA kit (Biofront, Tallahassee, Fla.) as per the manufacturer's protocol. Briefly, 5 μl of the serum was lysed with equal volume of lysis buffer for 30 min at 37° C. A 1:900 dilution of the serum was done using sample dilution buffer and added to ELISA plates. Reactions were quantified using HRP conjugated antibody and TMB. Absorbance was taken at 450 nm after adding the stop solution. Statistical analysis was done using the Mann-Whitney ANOVA. *p<0.05, **p<0.01, ***p<0.001.
as §2, with “9.” for “8.”, “treatment before and after Zika virus challenge.” for “treatment.”, “1:300” for “1:900”
NS1 ELISA. The anti-ZIKV NS1 ELISA (ZKV-NS1-EK) was obtained from BioFront Technologies (Tallahassee, Fla.) and used according to the manufacturer's protocol.
Ifnar1−/− mice (7-8 wk old, male and female, Jackson Lab) were dosed (i.p) with Emetine 1 mg/kg/day (n=6), 2 mg/kg/day (n=8) or saline (Vehicle control, n=8) starting at 24 hours prior to challenging with ZIKV (10^3, Focal forming unit (FFU)) on day 0. Drug was continued until day 6. At peak viremia (day 3), a blood sample was taken from the tail vein and serum was separated and stored at −70° C. till further analysis. The body weight were monitored twice daily until day 10. Mice reaching humane end points were euthanized. With emetine treatment, there was a 30% and 37% decrease in serum viral load with 1 mg/kg and 2 mg/kg treatment, respectively.
as §1

HEK293 cells = experiment: Toxicity IC50 (cell-killing activity) in the compound screen; type: cell-based, Human
ZIKV (three strains) [3] = experiment: immunofluorescence staining and quantification of ZIKV positive SNB-19 cells; type: cell-based, Zika virus; conditions: one of three ZIKV strains; emetine at 0.01, 0.1, or 1 μM
Protocol: Immunofluorescence (IF) staining (FIG. 2A) and quantification (FIG. 2B) of ZIKV positive SNB-19 cells following infection with one of three ZIKV strains and treatment with emetine at 0.01, 0.1, or 1 μM. Emetine is effective against all three ZIKV strains tested.
Preparation of ZIKV and cell infection. The MR766-ZIKV stock with the titer of 1×10^5 Tissue Culture Infective Dose (TCID)/ml in the form of culture fluid from an infected rhesus Macaca cell line LLC-MK2, was originally obtained from ZeptoMetrix (Buffalo, N.Y.). The FSS13025-ZIKV strain was obtained from Drs. Robert Tesh and Pei-Yong Shi (University of Texas Medical Branch, Galveston, Tex.). The PRVABC59 strain was obtained from ATCC (Manassas, Va.). Original viral stocks were then amplified in Aedes albopictus clone C6/36 cells. Briefly, C6/36 cells were inoculated with viral inoculum for one hour at 28° C. in low volume of media (3 ml per T-75 flask), with rocking every 15 minutes, before addition of 17 ml media. Viral inoculated cells were incubated at 28° C. for 6-7 days before harvesting of supernatant. C6/36-amplified ZIKV titer was determined by infecting Vero cells for 48 hours with a methyl-cellulose overlay and analyzed for focus-forming units per mL (FFU/ml). In mock infections, an equal volume of spent uninfected C6/36 culture medium was used. […]

ZIKV (three strains) [4] = experiment: infectious ZIKV production from SNB-19 cells, focus-forming unit assay on Vero cells; type: cell-based; conditions: Zika virus, for each of three ZIKV strains
Protocol: FIGS. 1A-B. Antiviral activity of emetine against ZIKV infection. ZIKV production from human glioblastoma SNB-19 cells treated with increasing concentrations of emetine. 24 hours post-infection, supernatants from SNB-19 cells were titrated onto naïve Vero cells plated in a monolayer in 96-well plates for infectious focus-forming unit assay as previously described and focus forming units quantified.
(§3) IC50 for each strain is ≤˜10 nM.
Cell line cultures. The glioblastoma SNB-19 cell line (part of the National Cancer Institute 60 human tumor cell line) was a gift from Dr. David Meckes (Florida State University, Tallahassee, Fla.). SNB-19 cells were maintained at 37° C. in 5% CO2 in […], 1× penicillin/streptomycin, and 10% fetal bovine serum (Invitrogen). The Aedes albopictus C6/36 cell line (ATCC) was maintained at 28° C. in 5% CO2.
Preparation of ZIKV and cell infection. The MR766-ZIKV stock with the titer of 1×10^5 Tissue Culture Infective Dose (TCID)/ml in the form of culture fluid from an infected rhesus Macaca cell line LLC-MK2, was originally obtained from ZeptoMetrix (Buffalo, N.Y.). The FSS13025-ZIKV strain was obtained from Drs. Robert Tesh and Pei-Yong Shi (University of Texas Medical Branch, Galveston, Tex.). […] C6/36-amplified ZIKV titer was determined by infecting Vero cells for 48 hours with a methyl-cellulose overlay and analyzed for focus-forming units per mL (FFU/ml). […]

PRVABC59-ZIKV = experiment: time of addition: drug added 1 hour prior to or 4 hours post infection, NS1 Western blot and ZIKV-ENV IF staining; type: cell-based, Zika virus; conditions: added before or after infection; 1 μM
Protocol: as §3
Drug (emetine) was added at 1 μM either 1-hour prior to infection with PRVABC59-ZIKV, or 4-hours post infection with PRVABC59-ZIKV.
FIGS. 6A-B show IF staining of ZIKV-ENV Vero cells after a 24-hour infection. Drug was added at 1 μM either 1-hour prior to infection with PRVABC59-ZIKV, or 4-hours post infection with PRVABC59-ZIKV.
Immunocytochemistry. Cells were fixed with 4% paraformaldehyde (Sigma) for 15 min at room temperature. Samples were permeabilized and blocked with 0.25% Triton X-100 (Sigma) and 10% donkey or goat serum in PBS for 20 min as previously described (Chiang et al., 2011; [41]; Yoon et al., 2014). Samples were then incubated with primary antibodies at 4° C. overnight, followed by multiple PBST washes and incubation with secondary antibodies for 1 h at room temperature. Slides were mounted using VECTASHIELD with DAPI (Vectorlabs, Burlingame, Calif.). The following primary antibodies were used: anti-flavivirus group antigen (clone D1-4G2-4-15; mouse; 1:500; Millipore), and anti-cleaved caspase-3 ([…]; Rabbit; 1:500; Cell Signaling Technology). Antibodies were prepared in PBS containing 0.25% Triton X-100 and 10% donkey serum. Images were taken by Zeiss LSM 700 and 880 confocal microscopes, Olympus BX61, or Zeiss Axiovert 200M microscope.
Western blot. […]

[5] = 2 mg/kg i.p. starting 24 hours after ZIKV challenge
[6] = 2 mg/kg i.p. starting 24 hours prior to ZIKV challenge

Row | Compound | reduction in liver viral load (ZIKV [1]; [5]) [%] | reduction in liver viral load (ZIKV [1]; [6]) [%] | reduction in serum viral load (ZIKV [2]; [5]) [%] | reduction in serum viral load (ZIKV [2]; [6]) [%] | Tox IC50 (HEK293 cells) | ZIKV positive SNB-19 cells (IF) (ZIKV (three strains) [3]) | IC50 (ZIKV (three strains) [4]) [nM] | effect on ZIKV infection by time of addition (PRVABC59-ZIKV) | decrease in serum viral load (ZIKV [2]; 1 mg/kg/day i.p. from 24 hours prior to challenge) [%] | decrease in serum viral load (ZIKV [2]; 2 mg/kg/day i.p. from 24 hours prior to challenge) [%]
1 | CC[C@H]1CN2CCc3cc(OC)c(OC)cc3[C@@H]2C[C@@H]1C[C@H]1NCCc2cc(OC)c(OC)cc21 [emetine dihydrochloride] | 35 | 42 | 32 | 55 | – | – | – | – | – | –
2 | CC[C@H]1CN2CCc3cc(OC)c(OC)cc3[C@@H]2C[C@@H]1C[C@H]1NCCc2cc(OC)c(OC)cc21 [Emetine, emetine] | – | – | – | – | No | reduces ZIKV infection in a dosage dependent manner | ≤ 10 | effective against ZIKV infection when added before or after infection | 30 | 37
